For 22 compounds, IC50 and inhibition results are on record in ChEMBL document CHEMBL6092179, “Discovery of CLKs inhibitors for the treatment of non-small cell lung cancer” (Eur J Med Chem, 2024).

Calls of active or inactive are those of the source. No cut-off for these calls is given here.

The test system of assay [1] is NCI-H1299. Description: cells. Particulars: Homo sapiens, NCI-H1299, 48 h.
Description: Antiproliferative activity against human NCI-H1299 cells assessed as inhibition of cell growth incubated for 48 hrs by MTT assay
Assay [2] concerns the target T1, Dual specificity protein kinase CLK2 (Homo sapiens, UniProt P49760). Particulars: dose 20.0 nM.
Target sequence in this assay (P49760 whole entry, looked up): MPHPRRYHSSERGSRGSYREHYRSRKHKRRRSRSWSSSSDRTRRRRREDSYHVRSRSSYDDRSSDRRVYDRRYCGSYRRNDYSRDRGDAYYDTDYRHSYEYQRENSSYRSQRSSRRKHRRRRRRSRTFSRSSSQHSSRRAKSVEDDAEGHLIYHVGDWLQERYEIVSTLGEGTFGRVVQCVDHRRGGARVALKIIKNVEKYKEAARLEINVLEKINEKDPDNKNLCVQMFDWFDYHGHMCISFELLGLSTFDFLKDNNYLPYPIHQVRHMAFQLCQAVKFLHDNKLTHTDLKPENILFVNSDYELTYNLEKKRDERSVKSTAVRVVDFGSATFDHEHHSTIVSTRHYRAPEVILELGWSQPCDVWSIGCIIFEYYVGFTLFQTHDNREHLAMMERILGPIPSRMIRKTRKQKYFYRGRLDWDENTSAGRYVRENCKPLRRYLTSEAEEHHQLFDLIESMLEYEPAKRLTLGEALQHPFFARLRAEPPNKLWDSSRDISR
Description: Inhibition of CLK2 (unknown origin) at 20 nM by ADP-Glo assay relative to control
Another assay deals with A549. Description: cells. Particulars: Homo sapiens, A549, 48 h.
Assay [3] has as its target T1, Dual specificity protein kinase CLK2. As to the kind of experiment: Inhibition of CLK2 (unknown origin) by ADP-Glo assay. For orientation: ADP-Glo first removes unused ATP, then detects ADP through luciferase.
Target sequence in this assay (P49760 whole entry): as the sequence (P49760 whole entry, looked up) above
A further assay concerns HCC827. Description: cells. Particulars: Homo sapiens, HCC827, 48 h.
A further assay can be described thus: cells. Particulars: Homo sapiens, Osimertinib-resistant HCC827AR cell, 48 h.
The subject of assay [4] is Osimertinib-resistant NCI-H1975 cell. As to the kind of experiment: cells. Particulars: Homo sapiens, 48 h.
Description: Antiproliferative activity against human Osimertinib-resistant NCI-H1975 cell assessed as inhibition of cell growth incubated for 48 hrs by MTT assay
A further assay relates to NCI-H1975. Description: cells. Particulars: Homo sapiens, NCI-H1975, 48 h.
In assay [5] the target is Dual specificity protein kinase CLK3 (Homo sapiens, UniProt P49761). Description: Inhibition of CLK3 (unknown origin) by ADP-Glo assay.
Assay [6] deals with NCI-H1299. As to the kind of experiment: Inhibition of colony formation in human NCI-H1299 cells at 1 uM incubated for 7 days by crystal violet staining based analysis. The format is functional, cell-based. Particulars: time 7.0 day.

What is called IC50 is the concentration that inhibits the measured activity by half. Read a high IC50 as lower potency. As usually defined, the inhibition is the share of the control response that was lost under treatment.

Sequence of Dual specificity protein kinase CLK3 (P49761 whole entry): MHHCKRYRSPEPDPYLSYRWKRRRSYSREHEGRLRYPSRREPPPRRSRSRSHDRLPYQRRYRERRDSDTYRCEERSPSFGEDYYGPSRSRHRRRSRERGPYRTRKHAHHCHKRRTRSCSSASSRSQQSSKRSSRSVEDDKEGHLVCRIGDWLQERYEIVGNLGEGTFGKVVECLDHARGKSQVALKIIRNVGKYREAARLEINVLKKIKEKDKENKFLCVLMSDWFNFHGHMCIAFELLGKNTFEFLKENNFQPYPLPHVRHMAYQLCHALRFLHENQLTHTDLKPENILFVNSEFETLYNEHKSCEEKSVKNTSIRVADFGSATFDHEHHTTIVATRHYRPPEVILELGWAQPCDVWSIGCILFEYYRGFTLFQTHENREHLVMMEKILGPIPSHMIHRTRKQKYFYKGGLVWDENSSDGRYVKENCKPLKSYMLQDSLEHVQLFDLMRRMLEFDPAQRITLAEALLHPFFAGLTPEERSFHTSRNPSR
Description for A549: Antiproliferative activity against human A549 cells assessed as inhibition of cell growth incubated for 48 hrs by MTT assay
Description for HCC827: Antiproliferative activity against human HCC827 cells assessed as inhibition of cell growth incubated for 48 hrs by MTT assay

For `CC(C)CC(=O)Nc1cncc(-c2ccc3[nH]nc(-c4nc(-c5ccco5)c[nH]4)c3c2)c1`, the IC50 in the assay on NCI-H1299 [1] was found to be 1420 nM.
`CC(C)CC(=O)Nc1cncc(-c2ccc3[nH]nc(-c4nc(-c5ccsc5)c[nH]4)c3c2)c1` gave a concentration for half-maximal inhibition (IC50) in the assay on NCI-H1299 [1] of 910 nM.
`CC(C)C[C@H](N)COc1cncc(-c2ccc3[nH]nc(-c4nc(-c5ccccc5)c(-c5ccccc5)[nH]4)c3c2)c1` yielded an IC50 in the assay with NCI-H1299 [1] of 2380 nM.
Still for that read-out and setting: to `FC1(F)CCN(Cc2cncc(-c3ccc4[nH]nc(-c5nc(-c6ccco6)c[nH]5)c4c3)c2)C1` belongs 720 nM; to `CC(C)C[C@H](N)COc1cncc(-c2ccc3[nH]nc(-c4nc(-c5ccsc5)c[nH]4)c3c2)c1`, 1150 nM.
In assay [2], `Cc1[nH]nc2ccc(-c3cncc(OC[C@@H](N)CC(C)C)c3)cc12` gave an inhibition of 98.5%. Further, the IC50 in the assay on A549 is 3950 nM; in [3], 4.1 nM; in the assay on HCC827, 3950 nM; in the assay “cells” it was 3670 nM; in [4], 1920 nM; in the assay on NCI-H1975, 1720 nM. The values for the 50% inhibitory concentration (IC50) (in assay [5]; with NCI-H1299 [1]) were more than 100 nM and 2510 nM, respectively. Besides, in the assay on NCI-H1299 [6], the inhibition result was “inactive”.
With `FC1(F)CCN(Cc2cncc(-c3ccc4[nH]nc(-c5nc(-c6ccccc6)c[nH]5)c4c3)c2)C1`, in the assay with NCI-H1299 [1], the 50% inhibitory concentration (IC50) was found to be 1270 nM.
On the same count and under the same terms, to `CC(C)CC(=O)Nc1cncc(-c2ccc3[nH]nc(-c4nc(-c5cccc(C(F)(F)F)c5)c[nH]4)c3c2)c1` belongs 3070 nM; to `Cc1nc(-c2n[nH]c3ccc(-c4cncc(CN5CCC(F)(F)C5)c4)cc23)[nH]c1-c1ccccc1`, 1620 nM.
With `FC1(F)CCN(Cc2cncc(-c3ccc4[nH]nc(-c5nc(-c6cccnc6)c[nH]5)c4c3)c2)C1`, the 50% inhibitory concentration (IC50) in the assay with NCI-H1299 [1] was 260 nM.
On the same count and under the same terms, to `CC(C)C[C@H](N)COc1cncc(-c2ccc3[nH]nc(-c4nc(-c5ccco5)c[nH]4)c3c2)c1` belongs 480 nM; to `CCc1[nH]c(-c2n[nH]c3ccc(-c4cncc(NC(=O)CC(C)C)c4)cc23)nc1C`, 1620 nM; to `FC1(F)CCN(Cc2cncc(-c3ccc4[nH]nc(-c5nc(-c6ccccc6)c(-c6ccccc6)[nH]5)c4c3)c2)C1`, 6580 nM.
Same read-out and setting: to `CC(C)CC(=O)Nc1cncc(-c2ccc3[nH]nc(-c4nc(-c5ccco5)c(-c5ccco5)[nH]4)c3c2)c1` belongs 1530 nM; to `FC1(F)CCN(Cc2cncc(-c3ccc4[nH]nc(-c5nc(-c6ccsc6)c[nH]5)c4c3)c2)C1`, 1380 nM.
On the same count and under the same terms, to `Cc1nc(-c2n[nH]c3ccc(-c4cncc(OC[C@@H](N)CC(C)C)c4)cc23)[nH]c1-c1ccccc1` belongs 450 nM.
`Cc1nc(-c2n[nH]c3ccc(-c4cncc(NC(=O)CC(C)C)c4)cc23)[nH]c1-c1ccccc1`: the IC50 in the assay on NCI-H1299 [1] was 1380 nM.
Still for that read-out and setting: the same measure for `CC(C)C[C@H](N)COc1cncc(-c2ccc3[nH]nc(-c4nc(-c5ccco5)c(-c5ccco5)[nH]4)c3c2)c1`: 1680 nM; for `FC1(F)CCN(Cc2cncc(-c3ccc4[nH]nc(-c5nc(-c6cccc(C(F)(F)F)c6)c[nH]5)c4c3)c2)C1`: 2660 nM; for `CC(C)C[C@H](N)COc1cncc(-c2ccc3[nH]nc(-c4nc(-c5cccnc5)c[nH]4)c3c2)c1`: 700 nM.
Take `CC(C)C[C@H](N)COc1cncc(-c2ccc3[nH]nc(-c4nc(-c5cccc(C(F)(F)F)c5)c[nH]4)c3c2)c1`: the IC50 with NCI-H1299 [1] is 1160 nM.
On to `CC(C)CC(=O)Nc1cncc(-c2ccc3[nH]nc(-c4nc(-c5cccnc5)c[nH]4)c3c2)c1`, for which 820 nM corresponded to half-maximal inhibition in the assay on NCI-H1299 [1] (IC50).
